Among the data in PubChem BioAssay (NCI) are TGI values, retold here.

Some test systems named below: ACHN renal; BT-549 breast; EKVX NSCLC; HS 578T breast; LOX IMVI melanoma; MCF7 breast; MDA-MB-231 breast; NCI-H522 lung; OVCAR-4 ovarian; UACC-62 melanoma.
What all share (assay): inhibition of tumour cell growth, NCI panel, 48 h

Each structure is given as a SMILES string.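 Compound exposure: 48 hours, 5 concentrations, 96-well plates. TGI: total growth inhibition.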

Take `CC1(C)OCC(C2OC(C)(C)OC2[C@H]2O[C@@]3(O)[C@H]4[C@H](C=CC[C@@H]42)[C@@H](OCc2ccccc2)[C@H](OCc2ccccc2)[C@H]3OCc2ccccc2)O1` (stereo not given in full): the TGI in the experiment on ACHN renal, with BT-549 breast, in the experiment on EKVX NSCLC, with HS 578T breast, in the experiment on LOX IMVI melanoma and with MCF7 breast was above 100 µM throughout. Also, the TGI in the experiment with MDA-MB-231 breast, in the experiment on NCI-H522 lung, in the experiment with OVCAR-4 ovarian and in the experiment on UACC-62 melanoma was above 100 µM in each case.

Consider `CCC1([N+](=O)[O-])CN(N=O)C1`, for which the TGI in the experiment on ACHN renal, in the experiment with BT-549 breast, in the experiment with EKVX NSCLC, with HS 578T breast, in the experiment with LOX IMVI melanoma and in the experiment with MCF7 breast was above 100 µM throughout. For the same molecule, the TGI with MDA-MB-231 breast, in the experiment on NCI-H522 lung, in the experiment with OVCAR-4 ovarian and with UACC-62 melanoma was above 100 µM each time.

For the molecule `Clc1ccc(/C(=C/c2ccccc2)Cn2ccnc2)cc1`, the TGI in the experiment on ACHN renal was above 100 µM; in the experiment on BT-549 breast it was 96.2 µM; in the experiment with EKVX NSCLC, above 100 µM; in the experiment on HS 578T breast, above 100 µM; with LOX IMVI melanoma it was 91.1 µM; in the experiment on MCF7 breast, above 100 µM. Moreover, the TGI is above 100 µM in the experiment on MDA-MB-231 breast, 57.6 µM in the experiment with NCI-H522 lung, above 100 µM in the experiment on OVCAR-4 ovarian and above 100 µM with UACC-62 melanoma.

Take `CCOC(=O)[C@@H](Cc1ccc(CCl)cc1)NC(C)=O`: the TGI was 43.5 µM with ACHN renal; above 100 µM in the experiment on BT-549 breast; 54.9 µM with EKVX NSCLC; 60.8 µM in the experiment with HS 578T breast; 37 µM in the experiment on LOX IMVI melanoma; 83.5 µM in the experiment on MCF7 breast. The TGI was determined as 81.6 µM in the experiment with MDA-MB-231 breast, 35.5 µM with NCI-H522 lung, 41.1 µM with OVCAR-4 ovarian and 31.5 µM in the experiment on UACC-62 melanoma.

With `COc1cc2c(cc1OCc1ccccc1)NC(=O)[C@@H]1CCCN1C2=O`, the TGI with ACHN renal, in the experiment with BT-549 breast, with EKVX NSCLC, in the experiment on HS 578T breast, in the experiment on LOX IMVI melanoma and with MCF7 breast was above 100 µM in each case. Moreover, the TGI in the experiment on MDA-MB-231 breast, in the experiment with NCI-H522 lung, in the experiment with OVCAR-4 ovarian and with UACC-62 melanoma was above 100 µM in each case.

For `CCc1nc2c(c(N(C)C)c1C(=O)OC)CCc1ccccc1-2`, the TGI in the experiment with ACHN renal was above 100 µM; with BT-549 breast it was above 100 µM; with EKVX NSCLC, above 100 µM; in the experiment on HS 578T breast it was above 100 µM; in the experiment with LOX IMVI melanoma it was above 100 µM; in the experiment with MCF7 breast, 48.2 µM. Further, the TGI with MDA-MB-231 breast is 87.8 µM; in the experiment with NCI-H522 lung it was 45.6 µM; in the experiment with OVCAR-4 ovarian, above 100 µM; in the experiment with UACC-62 melanoma, 40.4 µM.

Take `Cc1cc(-c2cc(C(C)(C)C)c(O)c(C(C)(C)C)c2)c(C)cc1-c1cc(C(C)(C)C)c(O)c(C(C)(C)C)c1`: the TGI with ACHN renal, in the experiment on BT-549 breast, with EKVX NSCLC, with HS 578T breast, in the experiment on LOX IMVI melanoma and with MCF7 breast was above 100 µM throughout. For the same molecule, the TGI in the experiment on MDA-MB-231 breast, in the experiment with NCI-H522 lung, with OVCAR-4 ovarian and in the experiment with UACC-62 melanoma was above 100 µM each time.

Regarding `Cc1nc2c(=O)n(-c3ccccc3)c(=O)n(-c3ccccc3)c2o1`, the TGI in the experiment with ACHN renal, with BT-549 breast, in the experiment on EKVX NSCLC, with HS 578T breast, in the experiment on LOX IMVI melanoma and with MCF7 breast was above 100 µM each time. Also, the TGI with MDA-MB-231 breast, in the experiment with NCI-H522 lung, with OVCAR-4 ovarian and in the experiment with UACC-62 melanoma was above 100 µM throughout.

On to `CC1=NN2C(=N)/C(=C/c3ccc(F)cc3)C(=O)N=C2S1`, for which the TGI in the experiment with ACHN renal, in the experiment with BT-549 breast, in the experiment on EKVX NSCLC, in the experiment with HS 578T breast, in the experiment with LOX IMVI melanoma and with MCF7 breast was above 100 µM in each case. In addition, the TGI in the experiment with MDA-MB-231 breast, in the experiment on NCI-H522 lung, in the experiment on OVCAR-4 ovarian and with UACC-62 melanoma was above 100 µM in each case.

On to `O=C(c1ccc([N+](=O)[O-])cc1)N1CCCC1`, for which the TGI in the experiment on ACHN renal, with BT-549 breast, with EKVX NSCLC, in the experiment with HS 578T breast, in the experiment on LOX IMVI melanoma and with MCF7 breast was above 100 µM throughout. Also, the TGI with MDA-MB-231 breast, with NCI-H522 lung, in the experiment with OVCAR-4 ovarian and with UACC-62 melanoma was above 100 µM throughout.

As for `CC(=N/NC(=S)N(C)C)/C(=N\NC(=S)N(C)C)c1ccccc1`, the TGI is 3.26 µM with ACHN renal; 4.63 µM in the experiment with BT-549 breast; 3.56 µM in the experiment on EKVX NSCLC; 6.26 µM in the experiment with HS 578T breast; above 100 µM in the experiment with LOX IMVI melanoma; above 25.6 µM with MCF7 breast. Also, the TGI was above 23.8 µM in the experiment on MDA-MB-231 breast, 3.78 µM in the experiment on NCI-H522 lung, 3.74 µM with OVCAR-4 ovarian and 4.44 µM in the experiment on UACC-62 melanoma.

In the case of `CN1c2ccccc2C2=C(c3ccccc3)CC[C@@H](C(=O)N3C4CC5CC[C@@]4(CS3(=O)=O)C5(C)C)[C@@H]21` (stereo not given in full), the TGI in the experiment with ACHN renal, in the experiment with BT-549 breast, with EKVX NSCLC, in the experiment with HS 578T breast, in the experiment with LOX IMVI melanoma and in the experiment with MCF7 breast was above 100 µM throughout. The TGI in the experiment on MDA-MB-231 breast, with NCI-H522 lung, with OVCAR-4 ovarian and with UACC-62 melanoma was above 100 µM each time.

As for `NC(=O)c1ccc[n+](C2=C([O-])c3ccccc3C(=O)/C2=N\S(=O)(=O)c2ccccc2)c1`, the TGI in the experiment with ACHN renal amounted to 26.4 µM; in the experiment on BT-549 breast, 28.8 µM; in the experiment with EKVX NSCLC it was 27.8 µM; in the experiment on HS 578T breast, 47.3 µM; in the experiment with LOX IMVI melanoma it was 29.5 µM; with MCF7 breast, 29.6 µM. Further, the TGI in the experiment with MDA-MB-231 breast worked out at 34.5 µM; with NCI-H522 lung, 24.1 µM; in the experiment with OVCAR-4 ovarian, 18.9 µM; with UACC-62 melanoma it was 32.1 µM.

In the case of `Cc1cc(S(=O)(=O)N=C2Nc3cccc4cccc(c34)N2)c(S)cc1Cl`, the TGI with ACHN renal, in the experiment on BT-549 breast, with EKVX NSCLC, in the experiment on HS 578T breast, in the experiment with LOX IMVI melanoma and with MCF7 breast was above 100 µM throughout. Besides, the TGI in the experiment with MDA-MB-231 breast, with NCI-H522 lung, in the experiment with OVCAR-4 ovarian and in the experiment with UACC-62 melanoma was above 100 µM each time.

Consider `NC(=O)C1CCN(Cc2c(Cl)c(Cl)c(CN3CCC(C(N)=O)CC3)c(Cl)c2Cl)CC1`, for which the TGI with ACHN renal, in the experiment on BT-549 breast, with EKVX NSCLC, with HS 578T breast, with LOX IMVI melanoma and in the experiment with MCF7 breast was above 100 µM each time. For the same molecule, the TGI is 96 µM in the experiment with MDA-MB-231 breast, above 100 µM in the experiment with NCI-H522 lung, above 100 µM in the experiment on OVCAR-4 ovarian and above 100 µM with UACC-62 melanoma.

In the case of `COc1ccc(C2C=C(c3ccc(C)cc3)N(c3ccc(OC)cc3[N+](=O)[O-])C3C(=O)OC(=O)C23)c(OC)c1` (stereo not given), the TGI in the experiment with ACHN renal was 37.3 µM; in the experiment with BT-549 breast, above 100 µM; in the experiment with EKVX NSCLC, above 100 µM; with HS 578T breast, 57.6 µM; in the experiment on LOX IMVI melanoma it was 57 µM; in the experiment on MCF7 breast, above 100 µM. For the same molecule, the TGI in the experiment on MDA-MB-231 breast is above 100 µM; in the experiment on NCI-H522 lung it was 53.7 µM; in the experiment with OVCAR-4 ovarian, above 100 µM; in the experiment with UACC-62 melanoma, above 100 µM.

Regarding `CN(C)CCNCCCNc1c2ccccc2nc2cccc([N+](=O)[O-])c12`, the TGI is 0.0312 µM in the experiment with ACHN renal; 0.624 µM in the experiment with BT-549 breast; 0.0617 µM in the experiment on EKVX NSCLC; 0.384 µM with HS 578T breast; below 0.0253 µM with LOX IMVI melanoma; below 0.0268 µM in the experiment with MCF7 breast. For the same molecule, the TGI in the experiment with MDA-MB-231 breast was 0.0832 µM; in the experiment with NCI-H522 lung it was below 0.0133 µM; in the experiment with OVCAR-4 ovarian, 0.0208 µM; in the experiment with UACC-62 melanoma, 0.236 µM.

For `O=C1C=CC(=O)c2c(O)c(N3CCC[C@@H]3CO)c(Cl)c(O)c21`, the TGI in the experiment with ACHN renal was found to be 2.96 µM; in the experiment on BT-549 breast, 3.7 µM; with EKVX NSCLC, 3.55 µM; with HS 578T breast, 4.03 µM; with LOX IMVI melanoma, 3.16 µM; in the experiment on MCF7 breast, 2.7 µM. The TGI with MDA-MB-231 breast is 4.03 µM; in the experiment with NCI-H522 lung it was 2.36 µM; in the experiment with OVCAR-4 ovarian, 3.16 µM; in the experiment with UACC-62 melanoma, 2.96 µM.

With `CNC(=S)N1CCN(C(C)=O)C1=S`, the TGI is above 100 µM with ACHN renal; 51.7 µM in the experiment on BT-549 breast; 91.9 µM in the experiment on EKVX NSCLC; 87.5 µM with HS 578T breast; above 100 µM in the experiment with LOX IMVI melanoma; above 100 µM with MCF7 breast. Besides, the TGI was 16 µM in the experiment with MDA-MB-231 breast, above 100 µM in the experiment with NCI-H522 lung, 32.1 µM in the experiment on OVCAR-4 ovarian and above 100 µM in the experiment on UACC-62 melanoma.

Regarding `C/C(=C\CSCC(N)C(=O)O)CC/C=C(\C)CNc1ccccc1` (stereo not given), the TGI with ACHN renal, with BT-549 breast, in the experiment on EKVX NSCLC, in the experiment with HS 578T breast, with LOX IMVI melanoma and with MCF7 breast was above 100 µM each time. For the same molecule, the TGI in the experiment with MDA-MB-231 breast, in the experiment with NCI-H522 lung, with OVCAR-4 ovarian and in the experiment on UACC-62 melanoma was above 100 µM in each case.
